In series [1] the target is T1, BCL6 BTB domain (Homo sapiens, UniProt P41182).
T1 construct: the tag was removed by HRV-3C protease treatment, generating a simpler BCL6 5–129 product; Thioredoxin (N, cleaved yes); 6His (N, cleaved yes); made in house; host or cells: E. coli BL21-AI
Briefly: Fluorescence polarisation (FP) competition assay with BCOR-AF633 peptide. The format is biochemical. The settings on record: repurchased hits. How it is done:
A modified BCOR peptide containing a C-terminal cysteine, labelled with Alexa Fluor (AF)633 C5 maleimide ([…]-Cys(AF633)-amide) was obtained from Cambridge Research Biochemical. For high throughput screening, the assay was miniaturized from 10 µL in Perkin Elmer 384-well black Proxi Plus plates to 4 µL in Labcyte 1536-well black low dead volume LP-0410 plates. Each complete reaction (a modified version from[9],[17]) contained 20 mM Hepes/NaOH pH 8.0, 150 mM NaCl, 0.5 mM tris(2-carboxyethyl)phosphine (TCEP), 0.05% (v/v) Tween 20, 10 nM BCOR-AF633 peptide, 3 µM BCL6 BTB and 1–2% (v/v) DMSO. At this protein concentration, we recorded a FP signal of 80 to 90 mP, corresponding to about 55% BCOR-AF633 bound to the BCL6 BTB domain. Compounds and control BCOR peptide were dispensed using an Echo550 acoustic dispenser (Beckman Coulter). Protein and peptide reagents were added using a Multidrop combi (Thermo Scientific) or a Tempest v2 (Formulatrix). After 2 h incubation at room temperature, plates were read on an Envision plate reader (Perkin Elmer) with excitation and emission wavelengths of 620 nm and 688 nm, respectively, or Pherastar FSX (BMG Labtech) with FP filters module 590-50/675-50/675-50. […] As a low signal control, we used either the maximal inhibition by BCOR in the HTS campaign, or the signal obtained from the probe in the absence of BCL6 for IC50 determination. IC50 values were calculated using a sigmoidal dose–response (variable slope) four- parameter equation. Beside the FP measurement, the total fluorescence intensity (TFI) was recorded to allow identification of interfering compounds (TFI > 110% control)[26].
(Polarisation of emitted light reports the rotation of a fluorescent probe.)

For the next series, the target named is T2, Trx-6His-BCL6 BTB (Homo sapiens, UniProt P41182).
T2 construct: made in house; host or cells: E. coli BL21-AI
As to the kind of experiment: TR-FRET assay, Trx-6His-BCL6 BTB / BCOR-A633 peptide. The format is biochemical. How it is done: Each 15 µL TR-FRET reaction in 384-well black Proxiplate (Perkin Elmer) contained 1 or 10 nM Trx-6His-BCL6 BTB, 300 nM BCOR-A633 and 0.5 or 1 nM anti-6His-Terbium cryptate (Perkin Elmer), in the FP assay buffer (25 mM Hepes pH 8, 100 mM NaCl, 0.05% (v/v) Tween20, 0.5 mM TCEP), supplemented with 0.05% (w/v) bovine serum albumin. Test compounds in DMSO or DMSO alone were added to the wells using and Echo 550 acoustic dispenser to give the appropriate test concentration in 0.7% v/v DMSO final. After a 2 h incubation at room temperature, the plates were read on an Envision plate reader or a Pherastar FSX plate reader with 337 nm laser excitation, a first emission filter at 665 nm and a second emission filter at 615 or 620 nm. Data were normalised and IC50 determined as described above for the FP assay.
A general note: In TR-FRET formats the signal depends on donor and acceptor labels being close together.

The target in series [2] is T3, BCL6 BTB (Homo sapiens, UniProt P41182).
T3 construct: the tag was removed by HRV-3C protease treatment, generating a simpler BCL6 5–129 product; Thioredoxin (N, cleaved yes); 6His (N, cleaved yes); made in house; host or cells: E. coli BL21-AI
Briefly: 19F ligand-observed NMR TFA-WVIP-NH2 peptide displacement assay. It is filed as binding. How it is done:
Each 180 µL ^19F-NMR peptide displacement assay contained 20 mM HEPES buffer pH 8, 100 mM NaCl, 0.5 mM TCEP, 10% D2O, 200 µM reporter TFA-WVIP-NH2, with or without 200 µM compound (4% D6-DMSO final) and 6 µM BCL6 BTB. Each 180 µL sample reaction was prepared in a 96-well plate and 170 µL transferred to a 3 mm NMR tube (Bruker, Part No. Z112272) using a Gilson liquid handler GX-281. NMR data were collected on a Bruker […] 500 MHz spectrometer equipped with a 5 mm BBFO probe. Data were acquired and processed using Bruker Topsin 2.1. The recovery of the reporter NMR signal upon addition of compound indicates competitive binding at the same site as the TFA-WVIP-NH2 tetrapeptide on the protein. We quantified the extent of recovery of NMR signal in % of reporter displacement[42]: \% displacement=Ireporter(+protein+compound)-Ireporter(+protein)/Ireporter(-protein)-Ireporter(+protein)X100\%

The next series in a line: NMR kinetic solubility. It is filed as physicochemical. The note with it: 500 µM final compound concentration, 20 mM HEPES buffer pH 8, 2% or 5% DMSO. How it is done:
(§1) Solubility measurements by quantitative ^1H-NMR or HPLC method were performed as described previously.

The target in series [3] is T3, BCL6 BTB. As to the kind of experiment: Thermal shift assay (TSA). The format is binding. The note with it: measured at 200 and 400 µM compound; binder if ≥ 1 °C. How it is done: Thermal shift assays were performed in 4titude FrameStar (Part No. 4ti-0385) 384 well skirted PCR plates: each well contained 10 µL of sodium acetate pH 6 buffer, 100 mM NaCl, 0.5 mM TCEP, 10 µM BCL6 BTB and 20 × Sypro Orange dye (Life Technologies), with or without inhibitor compound (100–400 µM) at 4% (v/v) final DMSO concentration. Plates were heated on a Biorad CFX384 real time thermocycler with a temperature gradient from 10 to 95 °C with a 0.5 °C increment, 0.15 s/cycle. Data were processed using Vortex (Dotmatics): a shift of the BCL6 BTB melting temperature (ΔTm) of + 1 °C or more was classed as indicative of BCL6 compound binding.

The target of series [4] is T1, BCL6 BTB domain. As to the kind of experiment: Surface plasmon resonance (SPR).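 Also: Fail means no measurable KD from unsaturated curves poor sensorgrams or non-1:1 stoichiometry.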 It is filed as binding. The note with it: immobilised BCL6 BTB, pH 6.0, 1:1 equilibrium model. As to the method:
All surface plasmon resonance (SPR) experiments were carried out on a Biacore T200 (Cytiva) and amine coupling chemistry was used to immobilise the protein on a research grade CM5 sensor chip. The running buffer consisted of 100 mM sodium acetate, 100 mM sodium chloride, and 1 mM TCEP at pH 6.0. The chip’s surface was activated for 10 min using a 1:1 mixture of 100 mM N-hydroxysuccinimide and 400 mM 1-ethyl-3-(3-dimethylaminopropyl)-carbodiimide. BCL6 BTB protein was injected for 20 min at a concentration of 100 µg/mL in a 10 mM sodium acetate buffer (pH 5.5). Finally, the surface was blocked via an injection of 1 M ethanolamine pH 8.5 for 7 min. The flow rate was maintained at 10 µL/min for all the above procedures and ~ 10,000 response units (RU) of BCL6 was immobilised on the chip. Flow cell one was left unmodified as the reference surface.
Following protein immobilisation, the running buffer was changed to 100 mM sodium acetate, 100 mM sodium chloride, 1 mM TCEP, 0.05% Tween20 (v/v), 5% DMSO at pH 6.0.
All compound handling was performed on an ECHO 550 acoustic liquid dispenser and compounds were added to 384-well polypropylene V-bottomed plates (Greiner), which became the sample plates for the SPR. […] The flow rate was 30 µL/min, the injection time for the samples was 60 s, and the dissociation time was 60 s. The surface was not regenerated between sample injections. KD values were calculated from the Langmuir plot under equilibrium conditions using the 1:1 binding model in the Biacore software version 2 (Cytiva).
A general note: In SPR one partner is held on a chip, and binding of the other changes the refractive index at the surface.

The next series can be described thus: Caco-2 efflux ratio. The settings on record: human. The format is in vitro ADME.
The nature of series [5]: PAMPA passive permeability. The format is in vitro ADME. Details: PAMPA pH7.4: unit not given here. The note with it: pH 7.4. As to the method: Passive diffusion permeability was measured using a parallel artificial membrane permeability assay (PAMPA). The assay used an artificial membrane consisting of 2% (v/v) phosphatidyl choline in dodecane (Sigma Aldrich, Dorset, UK). The donor plate was a MultiScreen-IP Plate with a 0.45 µm hydrophobe Immobilon-P membrane (Millipore, UK) and the acceptor plate was a MultiScreen 96-well transport receiver plate (Millipore, UK). The permeability of test compound (10 µM) was measured at pH 7.4 in buffer containing 1% (w/v) Bovine Serum Albumin (Sigma Aldrich, Dorset, UK) following a 16 h incubation at 30 °C. After transfer and centrifugation, sample supernatants were diluted and analysed using a Waters (Milford, MA, US) TQ-S LC-MS/MS system. Permeability values (cm/s) were calculated using the following equation, where VD and VA are the volumes of donor and acceptor, respectively, and area is the surface area of the membrane x porosity: Papp=C x ln1-Drugacceptor/Drugequilibrium,whereC=VDxVA/VD+VAx area x time

The target of series [6] is T4, full-length BCL6/SMRT protein–protein interaction in HEK293T cells (Homo sapiens, UniProt P41182).
T4 construct: DNA encoding full length BCL6 and SMRT was inserted into pFC32K NanoLuc and pFC14K HaloTag vectors; expressed in transfected cells; host or cells: HEK293T
Briefly: NanoBRET cellular assay. It is filed as cell-based.

Series [7] concerns the target T5, ePL-tagged BCL6 BTB in HEK293T cells (Homo sapiens, UniProt P41182).
T5 construct: BCL6 BTB domain (HDSD51 plasmid construct encoding amino-acids 14–135) fused to a C-terminal ePL tag; expressed in transfected cells; host or cells: HEK293T
As to the kind of experiment: InCELL Hunter cellular target engagement assay. It is filed as cell-based. As to the method:
BCL6 cellular target engagement assays were established using the InCELL Hunter™ Target Engagement Kit from DiscoverX-Eurofin. For the assay, the expressed protein comprised the N-terminal truncated region of BCL6 BTB domain (HDSD51 plasmid construct encoding amino-acids 14–135) fused to a C-terminal ePL tag (enhanced ProLabel, DiscoverX). Constructs were transfected over 24 h in HEK293T cells using Lipofectamine 3000 (ThermoFisher Scientific) and 2.5 × 10^5 transfected cells / well in phenol red-free OptiMEM medium (ThermoFisher Scientific) were re-plated in 384 assay plates before treating with compounds for 6 h. To complete the assay, cells were incubated for 30 min at room temperature with the InCell Hunter assay reagents mix following the manufacturer’s instructions, before reading the chemiluminescent signal on an Envision (Perkin Elmer) plate reader.

The next series can be described thus: HPLC aqueous solubility. The format is physicochemical. The note with it: aqueous buffer, kinetic from dmso stock; PBS buffer pH 7.4, 1% DMSO, maximum targeted concentration 100 µM; read-out: HPLC Sol. As to the method: as §1
Setting [8] is: 1 or 10 nM Trx-6His-BCL6 BTB, read-out: TR-FRET IC50.

In brackets after ≈: the same amount, converted by molar mass. Like-named read-outs stand apart in the source and are kept apart here.

In general, IC50 refers to the concentration at which inhibition is half-maximal. For orientation: Kd means the free concentration of one partner at which half of the binding sites on the other are occupied at equilibrium, for simple one-to-one binding. As usually defined, the efflux ratio is a quotient of directional permeabilities that is used to spot active efflux. The term EC50 denotes the concentration needed to bring the measured effect to its halfway point.

Turning to `N#Cc1c(NCc2ccccc2)ccnc1Cl` [Compound 21], the “FP pIC50 Mean” value at BCL6 BTB domain [1] came out at 3.92. For the same molecule, the IC50 on BCL6 BTB domain [1] (up to 2 mM, n=1-6, read-out: FP IC50 Geometric Mean) stood at 120 µM; at Trx-6His-BCL6 BTB (setting [8]), 70 µM. Further, the “19F LO-NMR, % peptide displaced” value at BCL6 BTB [2] (200 µM compound, 200 µM TFA-WVIP-NH2, 6 µM BCL6 BTB, mean ± SD, n=2, hit if ≥ 30%) is on record as 63 ± 7%. Also, at BCL6 BTB [2] (Figure 3A, qualitative), the “Displacement of BCL6-bound TFA-WVIP-NH2 peptide (recovery of fluorine signal)” value is listed as “able to displace”. Further, the “Sol. (NMR kinetic solubility)” value in “NMR kinetic solubility” is 72 µM. In addition, the “TSA Tm (thermal shift)” value on BCL6 BTB [3] was 1-2 ºC. The same molecule displayed a Kd at BCL6 BTB domain [4] of 81 µM.

Take `CC(C)OC(=O)c1cc(Nc2ccc3c(c2)CC(=O)N3C)n2nccc2n1` [Compound 25, isopropyl 7-((1-methyl-2-oxoindolin-5-yl)amino)pyrazolo[1,5-a]pyrimidine-5-carboxylate]: on Trx-6His-BCL6 BTB (setting [8]), the IC50 is 2.1 ± 0.1 µM. Further, the efflux ratio in the series “Caco-2 efflux ratio” is 0.72. Further, in [5] (PAMPA, read-out: PAMPA passive cell permeability), the Papp at 16 h, 10 µM came to 110 ×10⁻⁶ cm/s.

As for `CNC(=O)c1cc(Nc2ccc3c(c2)n(CCC(C)(C)O)c(=O)n3C)c(C#N)c(Cl)n1` [Compound 27], the IC50 worked out at 0.5 µM at Trx-6His-BCL6 BTB (1 nM BCL6 BTB domain, geometric mean n=3–5, read-out: TR-FRET Geo Mean IC50); 2.93 µM in series [6] (BCL6.NanoLuc/SMRT.HaloTag configuration, HEK293T, 6 h, geometric mean n=3–4, read-out: Nano BRET Geo Mean IC50); 3 µM in [6] (Figure 7B, C-terminally NanoLuc tagged BCL6 / SMRT.HaloTag, read-out: NanoBRET IC50, BCL6.NanoLuc). For the same molecule, the “NanoBRET inhibition, HaloTag.BCL6/NanoLuc.SMRT combination” value in [6] (BCL6 N-terminally fused to HaloTag) is reported as “only very weak inhibition”. Also, the EC50 in series [7] (Figure 6B, ePL-tagged BCL6 BTB 14–135, 6 h, n=3, read-out: InCELL Hunter EC50) amounted to 24 ± 9 µM; in series [7] (Table S3, C-terminally ePL-tagged BCL6 BTB 14-135, 6 hours, read-out: InCELL Geomean EC50), 23.7 µM. Further, the solubility kinetic in the series “HPLC aqueous solubility” came out at 80 µM (≈ 35.4 µg/mL). Also, in series [5], the “PAMPA pH7.4” value is reported as 19.

For the origin of these results see publication PMC9633773, “Discovering cell-active BCL6 inhibitors: effectively combining biochemical HTS with multiple biophysical techniques, X-ray crystallography and cell-based assays” (Scientific Reports, 2022).
